According to PMC9432691, “Characterisation of a soil MINPP phytase with remarkable long-term stability and activity from Acinetobacter sp” (PLoS ONE, 2022):

Target: T1, AtITPK1 (inositol tris/tetrakisphosphate kinase 1) (Arabidopsis thaliana, UniProt Q9SBA5)
T1 construct: gene ITPK1
T1 sequence (Q9SBA5 2-319): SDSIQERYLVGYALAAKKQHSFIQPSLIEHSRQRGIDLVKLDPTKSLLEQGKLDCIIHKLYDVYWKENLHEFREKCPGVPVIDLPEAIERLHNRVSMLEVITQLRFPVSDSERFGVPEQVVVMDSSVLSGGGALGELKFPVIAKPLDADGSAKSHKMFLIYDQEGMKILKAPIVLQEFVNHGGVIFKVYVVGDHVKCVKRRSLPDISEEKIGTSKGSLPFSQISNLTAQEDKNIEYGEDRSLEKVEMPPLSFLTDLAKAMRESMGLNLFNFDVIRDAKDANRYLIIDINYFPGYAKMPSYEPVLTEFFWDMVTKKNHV
Experiment: pyrophosphorylation assay with […] substrate, HPLC; […] conversion
Type: biochemical

**Q.** O=P(O)(O)O[C@H]1[C@H](OP(=O)(O)O)[C@@H](OP(=O)(O)O)[C@H](OP(=O)(O)O)[C@@H](OP(=O)(O)O)[C@H]1OP(=O)(O)O [InsP6, myo-inositol 1,2,3,4,5,6-hexakisphosphate] was tested. Which “% conversion” value did it give?
**A.** The value was 90 % conversion.
